The values below come from patent US20250032485A1, “APPLICATION OF IMIDAZO [1,2-A] PYRAZINE COMPOUNDS OR THEIR PHARMACEUTICALLY ACCEPTABLE SALTS IN THE PREPARATION OF ANTI-CORONAVIRUS DRUGS” (GUANGZHOU MEDICAL UNIVERSITY, priority 2023, published 2025).

For this assay, the target named is PLpro of SARS-CoV-2 (Severe acute respiratory syndrome coronavirus 2, UniProt P0DTD1). Briefly: Enzyme activity test in vitro: inhibition of PLpro at fixed concentration 50 μM (RLRGG-AMC substrate). In kind it is biochemical. Particulars: read-out: Inhibition rate at 50 μM (%).
`CNC(=O)c1ccc(Nc2c(-c3ccccc3)nc3cnccn23)cc1` [P22451, N-methyl-4-[(2-phenyl-imidazo[1,2-a]pyrazin-3-yl)amino] benzamide]: the inhibition at 50 µM was found to be 34.7%.

For the compound `Cc1ccc(-c2nc3cnccn3c2Nc2ccc(C(=O)NC(C)C)cc2)cc1` [P22452, 4-[[2-(4-methylphenyl)imidazo[1,2-a]pyrazin-3-yl]amino]-N-propan-2-ylbenzamide], the inhibition at 50 µM is 33.6%.

Take `Cc1ccc(-c2nc3cnccn3c2Nc2ccc(C(=O)NCCN(C)C)cc2)cc1` [P22453, N-[2-(dimethylamino)ethyl]-4-[[2-(4-methylphenyl)imidazo [1,2-a]pyrazin-3-yl]amino]benzamide]: the inhibition at 50 µM was determined as 36.6%.

As for `COc1ccc(-c2nc3cnccn3c2Nc2ccc(C(=O)N3CCCCC3)cc2)cc1` [P22454, [4-[[2-(4-methoxy-phenyl)imidazo[1,2-a]pyrazin-3-yl]amino]phenyl]-piperidin-1-ylmethanone], the inhibition at 50 µM stood at 31.8%.

`Cc1ccc(-c2nc3cnccn3c2Nc2ccc(C(=O)NCc3ccco3)cc2)cc1` [P22455, N-(furan-2-ylmethyl)-4-[[2-(4-methyl-phenyl)imidazo[1,2-a]pyrazin-3-yl]amino] benzamide]: the inhibition at 50 µM stood at 40.1%.

For the compound `CCNC(=O)c1cccc(Nc2c(-c3ccc(Cl)cc3)nc3cnccn23)c1` [P22456, 3-[[2-(4-chlorophenyl)imidazo[1,2-a]pyrazin-3-yl]amino]-N-ethylbenzamide], the inhibition at 50 µM was 30.3%.

With `CN(C)CCNC(=O)c1cccc(Nc2c(-c3ccc(Cl)cc3)nc3cnccn23)c1` [P22457, 3-[[2-(4-chlorophenyl)imidazo[1,2-a]pyrazin-3-yl]amino]-N-[2-(dimethylamino)ethyl]benzamide], the inhibition at 50 µM was found to be 38.6%.

`O=C(c1cccc(Nc2c(-c3ccccc3)nc3cnccn23)c1)N1CCCCC1` [P22458, [3-[(2-phenylimidazo [1,2-a]pyrazin-3-yl)amino]phenyl]-piperidin-1-ylmethanone]: the inhibition at 50 µM was 35.5%.

Turning to `COc1ccc(-c2nc3cnccn3c2Nc2cccc(C(=O)NCc3ccco3)c2)cc1` [P22459, N-(furan-2-ylmethyl)-3-[[2-(4-methoxy-phenyl)imidazo[1,2-a]pyrazin-3-yl]amino]benzamide], the inhibition at 50 µM is 35.4%.

Regarding `COc1ccc(-c2nc3cnccn3c2Nc2ccc(C(=O)N3CCCCC3)cc2)cc1OC` [P22460, [4-[[2-(3,4-dimethoxy-phenyl)imidazo[1,2-a]pyrazin-3-yl]amino]phenyl]-piperidin-1-ylmethanone], the inhibition at 50 µM is 31.8%.

Turning to `CCNC(=O)c1ccc(Nc2c(-c3ccccc3)nc3cnccn23)cc1` [P22461, N-ethyl-4-[(2-phenyl-imidazo[1,2-a]pyrazin-3-yl)amino] benzamide], the inhibition at 50 µM turned out to be 32.3%.

Consider `CSc1ccc(-c2nc3cnccn3c2Nc2ccc(C(=O)NC(C)C)cc2)cc1` [P22462, 4-[[2-(4-methyl-sulfanylphenyl)imidazo [1,2-a]pyrazin-3-yl]amino]-N-propan-2-ylbenzamide], for which the inhibition at 50 µM was 40.7%.

Regarding `O=C(NCC1CCCO1)c1ccc(Nc2c(-c3ccccc3)nc3cnccn23)cc1` (stereo not shown) [P22463, N-(oxolan-2-ylmethyl)-4-[(2-phenylimidazo [1,2-a]pyrazin-3-yl)amino]benzamide], the inhibition at 50 µM was 25.8%.

On to `Cc1ccc(-c2nc3cnccn3c2Nc2ccc(C(=O)N3CCCCC3)cc2)cc1` [P22464, [4-[[2-(4-methyl-phenyl)imidazo[1,2-a]pyrazin-3-yl]amino]phenyl]-piperidin-1-ylmethanone], for which the inhibition at 50 µM was 29.6%.

Turning to `CSc1ccc(-c2nc3cnccn3c2Nc2ccc(C(=O)NCc3ccco3)cc2)cc1` [P22465, N-(furan-2-ylmethyl)-4-[[2-(4-methyl-sulfanylphenyl)imidazo [1,2-a]pyrazin-3-yl]amino]benzamide], the inhibition at 50 µM came out at 29.6%.

For the compound `CCNC(=O)c1cccc(Nc2c(-c3ccc(SC)cc3)nc3cnccn23)c1` [P22466, N-ethyl-3-[[2-(4-methylsulfanylphenyl)imidazo[1,2-a]pyrazin-3-yl]amino] benzamide], the inhibition at 50 µM stood at 22.2%.

`CSc1ccc(-c2nc3cnccn3c2Nc2cccc(C(=O)NCCN(C)C)c2)cc1` [P22467, N-[2-(dimethylamino)ethyl]-3-[[2-(4-methylsulfanylphenyl)imidazo[1,2-a]pyrazin-3-yl]amino] benzamide]: the inhibition at 50 µM was 29.8%.

`O=C(c1cccc(Nc2c(-c3ccc(Cl)cc3)nc3cnccn23)c1)N1CCCCC1` [P22468, [3-[[2-(4-chlorophenyl)imidazo[1,2-a]pyrazin-3-yl]amino]phenyl]-piperidin-1-ylmethanone]: the inhibition at 50 µM amounted to 29%.

On to `O=C(NCc1ccco1)c1cccc(Nc2c(-c3ccc(Cl)cc3)nc3cnccn23)c1` [P22469, 3-[[2-(4-chlorophenyl)imidazo[1,2-a]pyrazin-3-yl]amino]-N-(furan-2-ylmethyl) benzamide], for which the inhibition at 50 µM is 40.5%.

As to `COc1ccc(-c2nc3cnccn3c2Nc2ccc(C(=O)N3CCOCC3)cc2)cc1OC` [P22470, [4-[[2-(3,4-dimethoxy-phenyl)imidazo[1,2-a]pyrazin-3-yl]amino]phenyl]-morpholin-4-ylmethanone], the inhibition at 50 µM came out at 32.1%.

With `O=C(NCCN1CCOCC1)c1ccc(Nc2c(-c3ccccc3)nc3cnccn23)cc1` [P22472, N-(2-morpholin-4-ylethyl)-4-[(2-phenyl-imidazo[1,2-a]pyrazin-3-yl)amino] benzamide], the inhibition at 50 µM is 33%.

Regarding `COc1ccc(-c2nc3cnccn3c2Nc2ccc(C(=O)NCC3CCCO3)cc2)cc1` (stereo not shown) [P22473, 4-[[2-(4-methoxy-phenyl)imidazo[1,2-a]pyrazin-3-yl]amino]-N-(oxolan-2-ylmethyl) benzamide], the inhibition at 50 µM amounted to 36.8%.

In the case of `O=C(c1ccc(Nc2c(-c3ccccc3)nc3cnccn23)cc1)N1CCOCC1` [P22474, morpholin-4-yl-[4-[(2-phenylimidazo [1,2-a]pyrazin-3-yl)amino]phenyl] methanone], the inhibition at 50 µM is 35.3%.

Regarding `CC(C)NC(=O)c1cccc(Nc2c(-c3ccccc3)nc3cnccn23)c1` [P22476, 3-[(2-phenylimidazo [1,2-a]pyrazin-3-yl)amino]-N-propan-2-ylbenzamide], the inhibition at 50 µM came to 29%.

For the compound `O=C(NCC1CCCO1)c1cccc(Nc2c(-c3ccccc3)nc3cnccn23)c1` (stereo not shown) [P22477, N-(oxolan-2-ylmethyl)-3-[(2-phenylimidazo [1,2-a]pyrazin-3-yl)amino]benzamide], the inhibition at 50 µM worked out at 41%.

Regarding `CSc1ccc(-c2nc3cnccn3c2Nc2cccc(C(=O)N3CCCCC3)c2)cc1` [P22478, [3-[[2-(4-methyl-sulfanylphenyl)imidazo [1,2-a]pyrazin-3-yl]amino]phenyl]-piperidin-1-ylmethanone], the inhibition at 50 µM was 43.9%.

On to `COc1ccc(-c2nc3cnccn3c2Nc2ccc(C(=O)NCc3ccco3)cc2)cc1OC` [P22480, 4-[[2-(3,4-dimethoxy-phenyl)imidazo[1,2-a]pyrazin-3-yl]amino]-N-(furan-2-ylmethyl)benzamide], for which the inhibition at 50 µM is 40.6%.

For the compound `O=C(NC1CCCCC1)c1cccc(Nc2c(-c3ccc(F)cc3)nc3cnccn23)c1` [P22481, N-cyclohexyl-3-[[2-(4-fluorophenyl)imidazo[1,2-a]pyrazin-3-yl]amino] benzamide], the inhibition at 50 µM was 11.8%.

As for `CCOC(=O)c1ccc(Nc2c(-c3ccc(C)cc3)nc3cnccn23)cc1` [P22482, ethyl 4-[[2-(4-methylphenyl)imidazo[1,2-a]pyrazin-3-yl]amino] benzoate], the inhibition at 50 µM came out at 22.2%.

As to `CCOC(=O)c1ccc(Nc2c(-c3ccccc3)nc3cnccn23)cc1` [P22483, ethyl 4-[(2-phenylimidazo [1,2-a]pyrazin-3-yl)amino]benzoate], the inhibition at 50 µM amounted to 29.4%.

Regarding `COC(=O)c1ccc(-c2nc3cnccn3c2Nc2ccc(OC)c(OC)c2)cc1` [P22491, methyl 4-[3-(3,4-dimethoxy-anilino)imidazo[1,2-a]pyrazin-2-yl] benzoate], the inhibition at 50 µM came out at 22.4%.

Take `CCOC(=O)c1ccc(Nc2c(-c3ccc(Cl)cc3)nc3cnccn23)cc1` [P22492, ethyl 4-[[2-(4-chlorophenyl)imidazo[1,2-a]pyrazin-3-yl]amino] benzoate]: the inhibition at 50 µM amounted to 29.5%.

`O=C(O)c1ccc(Nc2c(-c3cccc(Cl)c3)nc3cnccn23)cc1` [P22493, 4-[[2-(3-chlorophenyl)imidazo[1,2-a]pyrazin-3-yl]amino] benzoic acid]: the inhibition at 50 µM is 13.2%.

For `CCc1cccc(C)c1Nc1c(-c2ccc(C(=O)NC)cc2)nc2cnccn12` [P22501, 4-[3-(2-ethyl-6-methyl-anilino)imidazo [1,2-a]pyrazin-2-yl]-N-methyl-benzamide], the inhibition at 50 µM amounted to 28.7%.

Consider `CCOC(=O)c1ccc(Nc2c(-c3ccc(N(C)C)cc3)nc3cnccn23)cc1` [P22502, ethyl 4-[[2-[4-(dimethyl-amino)phenyl]imidazo [1,2-a]pyrazin-3-yl]amino]benzoate], for which the inhibition at 50 µM was 14.4%.

Regarding `O=C(O)c1ccc(Nc2c(-c3cc(Br)ccc3O)nc3cnccn23)cc1` [P22503, 4-[[2-(5-bromo-2-hydroxyphenyl)imidazo [1,2-a]pyrazin-3-yl]amino]benzoic acid], the inhibition at 50 µM is 27.6%.

Regarding `CCNC(=O)c1ccc(-c2nc3cnccn3c2Nc2c(C)cccc2CC)cc1` [P22511, N-ethyl-4-[3-(2-ethyl-6-methylanilino)imidazo[1,2-a]pyrazin-2-yl]benzamide], the inhibition at 50 µM was found to be 27.7%.

With `CCOC(=O)c1ccc(Nc2c(-c3ccccc3O)nc3cnccn23)cc1` [P22512, ethyl 4-[[2-(2-hydroxy-phenyl)imidazo[1,2-a]pyrazin-3-yl]amino] benzoate], the inhibition at 50 µM worked out at 26.9%.

Regarding `CCc1cccc(C)c1Nc1c(-c2ccc(NC(C)=O)cc2)nc2cnccn12` [P22513, N-[4-[3-(2-ethyl-6-methylanilino)imidazo [1,2-a]pyrazin-2-yl]phenyl]acetamide], the inhibition at 50 µM is 21.9%.

Consider `CCOC(=O)c1ccc(Nc2c(-c3ccc(C(=O)OC)cc3)nc3cnccn23)cc1` [P22521, methyl 4-[3-(4-ethoxy-carbonylanilino)imidazo[1,2-a]pyrazin-2-yl]benzoate], for which the inhibition at 50 µM is 22%.
